Assay results reported in article PMC4186413, “Identification of metabolic pathways and enzyme systems involved in the in vitro human hepatic metabolism of dronedarone, a potent new oral antiarrhythmic drug” (Pharmacology Research & Perspectives, 2014).

Assays:
[1] = test system: cryopreserved human hepatocytes in primary culture; assay: Unchanged drug disappearance / intrinsic metabolic clearance in primary cultures of cryopreserved human hepatocytes; type: in vitro ADME; settings: for In vitro intrinsic hepatic clearance, Mean ± SD: mean of four hepatocyte preparations
Procedure: Cryopreserved human hepatocytes were plated on 48-well collagen-coated plastic plates in a chemically defined medium adapted from Isom and Georgoff ([1984]), consisting of a 50/50 (v/v) mixture of Ham F12/Williams E medium supplemented with 10% decomplemented fetal calf serum, 10 mg/L insulin, 0.8 mg/L glucagon and antibiotics (100 IU penicillin and 100 μg/mL streptomycin). After 4–6 h at 37°C in a 5% CO2 and 100% humidified atmosphere, period during which hepatocytes attached to the collagen-matrix, the plating medium was removed and replaced by the same serum-free culture medium supplemented with HEPES (3.6 g/L), ethanolamine (4 mg/L), transferrin (10 mg/L), linoleic acid albumin (1.4 mg/L), glucose (252 mg/L), sodium pyruvate (44 mg/L), ascorbic acid (50 mg/L), arginine (104 mg/L), and L-glutamine (0.7 g/L).
(§1) Experiments were performed in 48-well plastic plates coated with rat tail Collagen type I. Plates were seeded with 0.16 × 10^5 hepatocytes per well in a final volume of 0.2 mL and incubated at 37°C under a 95% humidified air and 5% CO2 atmosphere. After 3 h during which cells were allowed to attach, the medium was renewed with 0.1 mL serum-free medium. Then, the investigated drug or metabolic probe(s) were added directly to the incubation medium in the absence or the presence of inhibitors such as either ketoconazole as a specific and potent CYP3A inhibitor (3 μmol/L final concentration), clorgyline (0.25 μmol/L final concentration) as a potent MAO-A inhibitor or ABT as a potent but nonselective CYP isoforms inhibitor (1 mmol/L final concentration) (Fabre et al. [1988]; Bourrié et al. [1996]; Klieber et al. [2008]). Regardless of the final concentration investigated, the final solvent (DMSO) concentration never exceeded 0.2% (v/v).
(§2) To determine the metabolism of the different compounds (metabolic probes, dronedarone, N-debutyl-dronedarone, propanoic acid-dronedarone, phenol-dronedarone, and C-dealkyl-dronedarone), kinetic studies were performed over 0–24 h. For each time point, 0.1 mL of acetonitrile was added to the specific well for protein precipitation, and both extracellular medium and the cell fraction were scraped together. Cell extracts were transferred to a glass tube and stored at −20°C until analysis. Before analysis, cell homogenates were sonicated for a few seconds, homogenized and centrifuged at 6000 g for 10 min. Supernatant fluids were then analyzed for the different drugs and their specific metabolites.
LC/MS-MS analysis was performed using an Acquity UPLC System I-Class equipped with a Waters Acquity UPLC BEH C18 column (2.1 mm i.d. × 100 mm length, 1.7 μm particle size) coupled to a Xevo TQS mass spectrometer (all from Waters, Milford, MA) used in electrospray ion positive mode.
In human hepatocytes, the intrinsic in vitro metabolic clearances (Clint) were calculated using WinNonLin PK analysis software version 5.2. All disappearance kinetics data were fitted with a model using the following equation: [drawing 2] where ke is the elimination rate constant expressed in h^−1, and V is the incubation volume expressed in mL normalized to 10^6 hepatocytes. The equation was applied to the initial (linear) part of the concentration–time curve.
(§3) The kinetics of drug disappearance were investigated using four different cryopreserved human hepatocyte preparations in primary cultures following incubation with either dronedarone or its metabolites at a concentration of 5 μmol/L. Incubations were performed either in the absence, that is control conditions, or in the presence of enzyme system inhibitors such as 3 μmol/L ketoconazole (specific and potent inhibitor of CYP3A4/5), 1 mmol/L ABT (a potent and […] inhibitor of total CYPs), or 0.25 μmol/L clorgyline (a potent MAO-A inhibitor) (Dorris [1982]). Kinetic studies were performed over 24 h.

Total CYPs = assay: Contribution of total CYPs to hepatocyte clearance (1-aminobenzotriazole inhibitory effect); type: in vitro ADME, human; settings: for Effect of ABT on metabolism in hepatocytes (words): 1 mmol/L ABT, 5 μmol/L drug; for fm Total CYPs, Mean ± SD: mean of hepatocyte preparations
Procedure: as §1, §2
The fraction metabolized (fm) by MAO, CYP3A or total CYPs was determined using the following equation: [drawing 3] where: kei is the elimination rate constant (expressed in h^−1) in the presence of the inhibitor.
as §3

[2] = hepatocyte preparation BD-91, 5 μmol/L
[3] = hepatocyte preparation BD-296, 5 μmol/L
[4] = hepatocyte preparation HU-1359, 5 μmol/L
[5] = hepatocyte preparation IVT-IBG, 5 μmol/L
[6] = BD-91, 1 mmol/L 1-aminobenzotriazole
[7] = BD-296, 1 mmol/L 1-aminobenzotriazole
[8] = HU-1358, 1 mmol/L 1-aminobenzotriazole
[9] = IVT-IBG, 1 mmol/L 1-aminobenzotriazole

In vitro intrinsic hepatic clearance [1, 2] [mL·h^−1·10^6 cells]	In vitro intrinsic hepatic clearance [1, 3] [mL·h^−1·10^6 cells]	In vitro intrinsic hepatic clearance [1, 4] [mL·h^−1·10^6 cells]	In vitro intrinsic hepatic clearance [1, 5] [mL·h^−1·10^6 cells]	In vitro intrinsic hepatic clearance, Mean ± SD ([1]; 5 μmol/L) [mL·h^−1·10^6 cells]	Effect of ABT on metabolism in hepatocytes (words) (Total CYPs)	Drug metabolized within 6 h of incubation ([1]; 5 μmol/L, control conditions)	fm Total CYPs (Total CYPs; [6]) [%]	fm Total CYPs (Total CYPs; [7]) [%]	fm Total CYPs (Total CYPs; [8]) [%]	fm Total CYPs (Total CYPs; [9]) [%]	fm Total CYPs, Mean ± SD (Total CYPs; 1 mmol/L 1-aminobenzotriazole) [%]	Mean maximal concentration of metabolite formed ([1]; hepatocytes incubated with 5 μmol/L dronedarone, control conditions without inhibitors)	In vitro intrinsic hepatic clearance, Mean ± SD ([1]; 5 μmol/L, listed as phenol-dronedarone) [mL·h^−1·10^6 cells]	Effect of ABT on metabolism in hepatocytes (words) (Total CYPs; listed as phenol-dronedarone)	Compound
0.003	0.002	0.004	0.003	0.003 ± 0.001	no effect	–	–	–	–	–	–	–	–	–	CCCCN(CCCC)CCCOc1ccc(C(=O)O)cc1 [C-dealkyl-dronedarone]
0.49	0.58	0.14	0.10	0.33 ± 0.21	predominant inhibitory effect	more than 80%	98	99	98	95	98 ± 2	–	–	–	CCCCc1oc2ccc(NS(C)(=O)=O)cc2c1C(=O)c1ccc(OCCCN(CCCC)CCCC)cc1.Cl [Dronedarone, N-(2-Butyl-3-(4-(3-(dibutylamino)propoxy)benzoyl)-5-benzofuranyl)methanesulfonamide, hydrochloride]
0.18	0.10	0.10	0.08	0.13 ± 0.03	moderately decreased its metabolic rate	–	67	48	51	54	55 ± 7	around 0.6 μmol/L	–	–	CCCCNCCCOc1ccc(C(=O)c2c(CCCC)oc3ccc(NS(C)(=O)=O)cc23)cc1 [N-debutyl-dronedarone]
0.44	0.70	0.57	0.75	0.62 ± 0.12	did not contribute	–	–	–	–	–	–	–	0.61 ± 0.12	no significant effect	CCCCc1oc2ccc(NS(C)(=O)=O)cc2c1C(=O)c1ccc(O)cc1 [Phenol-dronedarone]
0.06	0.17	0.20	0.14	0.14 ± 0.05	potently inhibited	–	87	92	91	89	90 ± 3	–	–	–	CCCCc1oc2ccc(NS(C)(=O)=O)cc2c1C(=O)c1ccc(OCCC(=O)O)cc1 [Propanoic acid-dronedarone]
